Two molecules from article PMC3299299, “Recombinant Expression and Characterization of Human and Murine ACE2: Species-Specific Activation of the Alternative Renin-Angiotensin-System” (International Journal of Hypertension, 2012) can be followed below.

Format in all cases: biochemical
Data set [1] concerns human RAS in blood plasma. As to the kind of experiment: Ex vivo incubation of renin-spiked human plasma, RAS-Fingerprinting by LC-MS/MS. The following applies: human plasma + 100 pg/mL recombinant human renin, 10 μM Lisinopril present, without or with 5 μg/mL enzyme, 10 min 37°C (Fig 3b).
Description: Anticoagulated blood was collected from healthy volunteers, and plasma was separated by 10 minutes centrifugation at 3000 RCF. […] After 10 minutes of incubation at 37°C, in the presence or absence of Lisinopril (Sigma), samples were chilled on ice and immediately subjected to LC-MS/MS analysis.
Plasma samples were spiked with 100 pg/mL stable-isotope-labeled internal standards and subjected to solid-phase extraction using Sep-Pak cartridges (Waters) according to manufacturers protocol. Following elution and solvent evaporation, samples were reconstituted in 50 μL 50% acetonitrile/0.1% formic acid and subjected to LC-MS/MS analysis using a reversed-phase analytical column (Luna C18, Phenomenex) using a gradient ranging from 10% acetonitrile/0.1% formic acid to 70% acetonitrile/0.1% formic acid in 9 minutes. The eluate was analyzed in line with a QTRAP-4000 mass spectrometer (AB Sciex) operated in the MRM mode using dwell times of 25 msec at a cone voltage of 4000 volts and a source temperature of 300°C. For each peptide and corresponding internal standards, two different mass transitions were measured. Angiotensin peptide concentrations were calculated by relating endogenous peptide signals to internal standard signals provided that integrated signals achieved a signal-to-noise ratio above 10.
RAS-Fingerprints were measured by LC-MS/MS as indicated in Section 2. Samples were incubated in the absence (a) or presence (b) of 10 μM of the ACE inhibitor Lisinopril. In this figure, the diameter of the spheres reflects the concentration of the respective peptide metabolite, which is also given in pg/mL next to each individual sphere. 0 pg/mL indicates concentrations below quantification limits, which are defined by a signal-to-noise ratio below 10. Furthermore, the amino acid sequence of each angiotensin metabolite is schematically given in brackets beside the corresponding sphere. The sequence annotation is based on the decapeptide Angiotensin I (1–10) which is N- or C-terminally cleaved by the indicated proteases. […]
For data set [2], the system named is RAS in whole blood. As to the kind of experiment: Ex vivo incubation of whole blood, RAS-Fingerprinting. Particulars: whole blood instead of plasma, control and rhACE2 samples (Supplementary Figure 1). The text has this: These findings were in contrast to previously published reports on Ang 1–7 accumulating effects of ACE inhibitors in vivo [20, 21]. In our experimental setting, we employed heparinized blood plasma as a sample matrix for ACE2 characterization which is reflecting in vivo conditions very well. However, plasma lacks all blood cells which might carry receptors and angiotensin peptide converting enzymes being able to affect angiotensin peptide concentrations in vivo. […] As neutral endopeptidase (NEP, CD10) is known to be expressed on the cell surface of leukocytes and that it is able to convert Ang 1–10 and Ang 1–9 to Ang 1–7 in vitro [18], NEP is very likely to be responsible for Ang 1–7 accumulation also in vivo, especially in the presence of ACE inhibitors which block the formation of Ang 1–8 which is an important precursor for Ang 1–7.

In data set [3] the test system is Ang 1–8. The experiment in a line: In vitro kinetic assay, Ang 1–8 cleavage to Ang 1–7, HPLC quantification. Particulars: ratio of k cat of the same enzyme for the two substrates. Here is the method:
(§1) Enzyme reactions were started by adding a defined amount of enzyme to substrate dilutions in MES-buffer (50 mM MES, 300 mM NaCl, 10 μM ZnCl2, 0.01% Brij-35, pH 6.5) which were previously equilibrated at 37°C. Aliquots of the reaction mixes were taken every 10 minutes and stopped by addition of 0.5 M EDTA to a final concentration of 100 mM before HPLC-based quantification of peptides.
(§2) The concentration of peptides in enzymatic reactions was quantified by detection of peaks eluted from the HPLC column using an in-line diode array detector. Chromatography was performed by running a gradient on a reversed-phase matrix (Source 5RPC, 4.6×150 mm, 5 μm) with 0.08% H3PO4 in water as mobile phase A and 40% acetonitrile in water and 0.08% H3PO4 as mobile phase B. The optical density at 280 nm was recorded inline for all eluting peaks, and peptide concentrations were calculated via calibration curves for each individual peptide.
The turnover rates for natural ACE2 substrates were determined by in vitro incubation with excess amounts of substrate followed by reversed-phase HPLC analysis. […] The resulting time courses are shown in the graphs. […] Each time point was analyzed in true triplicates and standard deviations are given in the graphs together with linear regressions of the measured values.

Data set [4] has as its system Ang 1–10. The experiment in a line: In vitro kinetic assay, Ang 1–10 cleavage to Ang 1–9, HPLC quantification. The following applies: […] enzyme, 65 μM Ang 1–10, MES buffer pH 6.5, 37°C, HPLC; mean of substrate degradation and product formation rates related to enzyme concentration; triplicates. Here is the method:
as §1, §2
The turnover rates for natural ACE2 substrates were determined by in vitro incubation with excess amounts of substrate followed by reversed-phase HPLC analysis. […] Each time point was analyzed in true triplicates and standard deviations are given in the graphs together with linear regressions of the measured values.

Turning to `NCCCC[C@H](N[C@@H](CCc1ccccc1)C(=O)O)C(=O)N1CCC[C@H]1C(=O)O` [Lisinopril], the “Ang (1–10) concentration in plasma” value in data set [1] (0 = below quantification limit) came to 710 pg/mL. The “Ang (1–7) concentration in plasma” value in data set [1] (0 = below quantification limit (2 pg/mL plasma)) is listed as under 2 pg/mL. Moreover, the “Ang 1–7 concentration in whole blood in response to Lisinopril” value in data set [2] was “increase of Ang 1–7 concentrations”.

Regarding “rhACE2: extracellular domain of human ACE2 recombinantly expressed in CHO cells”, in data set [3], the “turnover number for Ang 1–8 compared to Ang 1–10” value came to 42 fold. In addition, the “k cat, Ang 1–10 ≥ Ang 1–9” value in data set [4] turned out to be 0.018 s⁻¹.
